ChEMBL document CHEMBL1201862, “PubChem BioAssay data set” (2004)
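Following 48 hours of exposure in 96-well plates, responses at five concentrations were used to interpolate endpoints linearly. The concentration for 50% growth inhibition is given as GI50.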 The source made the active and inactive calls. Rule as the data show it: active = GI50 up to about 1.1 µM and inactive = higher.

Legend:
Experiment in all cases: inhibition of tumour cell growth, NCI panel, 48 h
K562 = test system: K562
SR = test system: SR
U-251 = test system: U-251
A498 = test system: A498
SF-539 = test system: SF-539
OVCAR-3 = test system: OVCAR-3
SK-MEL-28 = test system: SK-MEL-28
SF-295 = test system: SF-295
OVCAR-4 = test system: OVCAR-4
HL-60 = test system: HL-60
IGROV-1 = test system: IGROV-1
MOLT-4 = test system: MOLT-4
SK-OV-3 = test system: SK-OV-3
COLO 205 = test system: COLO 205
SW-620 = test system: SW-620
HCT-15 = test system: HCT-15
SN12C = test system: SN12C
HOP-92 = test system: HOP-92

Question: Which GI50 (K562) does the source give for CC(=O)N1C(=O)C(=O)c2cc(Cl)ccc21 here?
Answer: > 100 µM (inactive)

Question: What about the GI50 (SR) of the same compound?
Answer: > 100 µM (inactive)

Question: And the GI50 (U-251)?
Answer: > 100 µM (inactive)

Question: And the GI50 (A498)?
Answer: > 100 µM (inactive)

Question: And the GI50 (SF-539)?
Answer: > 100 µM (inactive)

Question: And the GI50 (OVCAR-3)?
Answer: > 100 µM (inactive)

Question: And the GI50 (SK-MEL-28)?
Answer: > 100 µM (inactive)

Question: What about the GI50 (SF-295) of the same compound?
Answer: > 100 µM (inactive)

Question: What about the GI50 (OVCAR-4) of the same compound?
Answer: > 100 µM (inactive)

Question: And the GI50 (HL-60)?
Answer: > 100 µM (inactive)

Question: And the GI50 (IGROV-1)?
Answer: > 100 µM (inactive)

Question: What about the GI50 (MOLT-4) of the same compound?
Answer: > 100 µM (inactive)

Question: What about the GI50 (SK-OV-3) of the same compound?
Answer: > 100 µM (inactive)

Question: What about the GI50 (COLO 205) of the same compound?
Answer: > 100 µM (inactive)

Question: What about the GI50 (SW-620) of the same compound?
Answer: > 100 µM (inactive)

Question: And the GI50 (HCT-15)?
Answer: > 100 µM

Question: And the GI50 (SN12C)?
Answer: > 100 µM (inactive)

Question: Which results are given for Cc1ccc(S(=O)(=O)OC(C=O)C(O)C(O)COC(c2ccccc2)(c2ccccc2)c2ccccc2)cc1 (stereo unspecified)?
Answer: GI50 (K562): 16.9 µM (inactive); GI50 (SR): 5.43 µM (inactive); GI50 (U-251): 14.4 µM (inactive); GI50 (A498): 18 µM (inactive); GI50 (SF-539): 16.3 µM (inactive); GI50 (OVCAR-3): 14.9 µM (inactive); GI50 (SK-MEL-28): 20.6 µM (inactive); GI50 (SF-295): 12.2 µM (inactive); GI50 (OVCAR-4): 18.2 µM (inactive); GI50 (IGROV-1): 15.1 µM (inactive); GI50 (MOLT-4): 6.08 µM (inactive); GI50 (SK-OV-3): 15 µM (inactive); GI50 (SW-620): 16.4 µM (inactive); GI50 (HCT-15): 14.1 µM; GI50 (SN12C): 15.5 µM (inactive)

Question: What does the source list for C[Si]12OCCCN(CCO1)CCO2?
Answer: GI50 (K562): > 100 µM (inactive); GI50 (SR): > 100 µM (inactive); GI50 (U-251): > 100 µM (inactive); GI50 (A498): > 100 µM (inactive); GI50 (SF-539): > 100 µM (inactive); GI50 (OVCAR-3): > 100 µM (inactive); GI50 (SK-MEL-28): > 100 µM (inactive); GI50 (SF-295): > 100 µM (inactive); GI50 (IGROV-1): > 100 µM (inactive); GI50 (MOLT-4): > 100 µM (inactive); GI50 (SK-OV-3): > 100 µM (inactive); GI50 (COLO 205): > 100 µM (inactive); GI50 (HOP-92): > 100 µM (inactive); GI50 (SW-620): > 100 µM (inactive); GI50 (SN12C): > 100 µM (inactive)

Question: Which results are given for N#Cc1ccc(Nc2cnc3ccc(N)cc3n2)cc1?
Answer: GI50 (K562): > 100 µM (inactive); GI50 (SR): 91.4 µM (inactive); GI50 (U-251): > 100 µM (inactive); GI50 (SF-539): > 100 µM (inactive); GI50 (OVCAR-3): > 100 µM (inactive); GI50 (SK-MEL-28): > 100 µM (inactive); GI50 (SF-295): > 100 µM (inactive); GI50 (OVCAR-4): > 100 µM (inactive); GI50 (HL-60): > 100 µM (inactive); GI50 (MOLT-4): > 100 µM (inactive); GI50 (SK-OV-3): > 100 µM (inactive); GI50 (COLO 205): > 100 µM (inactive); GI50 (HOP-92): > 100 µM (inactive); GI50 (SW-620): > 100 µM (inactive); GI50 (HCT-15): > 100 µM; GI50 (SN12C): > 100 µM (inactive)

Question: Which GI50 (K562) does the source give for C#C[C@]1(O)CCCC2=CC(=O)CC[C@@]21C here?
Answer: > 100 µM (inactive)

Question: And the GI50 (SR)?
Answer: > 100 µM (inactive)

Question: What about the GI50 (U-251) of the same compound?
Answer: > 100 µM (inactive)

Question: What about the GI50 (SF-539) of the same compound?
Answer: > 100 µM (inactive)

Question: What about the GI50 (OVCAR-3) of the same compound?
Answer: > 100 µM (inactive)

Question: And the GI50 (SK-MEL-28)?
Answer: > 100 µM (inactive)

Question: What about the GI50 (SF-295) of the same compound?
Answer: > 100 µM (inactive)

Question: And the GI50 (HL-60)?
Answer: > 100 µM (inactive)

Question: And the GI50 (IGROV-1)?
Answer: > 100 µM (inactive)

Question: What about the GI50 (MOLT-4) of the same compound?
Answer: > 100 µM (inactive)

Question: What about the GI50 (SK-OV-3) of the same compound?
Answer: > 100 µM (inactive)

Question: And the GI50 (COLO 205)?
Answer: > 100 µM (inactive)

Question: What about the GI50 (HOP-92) of the same compound?
Answer: > 100 µM (inactive)

Question: What about the GI50 (SW-620) of the same compound?
Answer: > 100 µM (inactive)

Question: And the GI50 (HCT-15)?
Answer: > 100 µM

Question: And the GI50 (SN12C)?
Answer: > 100 µM (inactive)

Question: What does the source list for OC1CN(OC/C=C/c2ccccc2)CC(O)C1O (stereo unspecified)?
Answer: GI50 (K562): > 100 µM (inactive); GI50 (U-251): > 100 µM (inactive); GI50 (A498): > 100 µM (inactive); GI50 (SF-539): > 100 µM (inactive); GI50 (OVCAR-3): > 100 µM (inactive); GI50 (SK-MEL-28): > 100 µM (inactive); GI50 (SF-295): > 100 µM (inactive); GI50 (OVCAR-4): > 100 µM (inactive); GI50 (HL-60): > 100 µM (inactive); GI50 (IGROV-1): > 100 µM (inactive); GI50 (MOLT-4): > 100 µM (inactive); GI50 (SK-OV-3): > 100 µM (inactive); GI50 (COLO 205): > 100 µM (inactive); GI50 (HOP-92): > 100 µM (inactive); GI50 (SW-620): 36.1 µM (inactive); GI50 (HCT-15): > 100 µM; GI50 (SN12C): > 100 µM (inactive)
